According to a melting point compilation (Tetko et al.):
Peptide text beside a SMILES is read from it.

| SMILES | melting point [°C] |
| --- | --- |
| OC1OC(C2CCCCC2)Cc2ccccc21 (configuration not stated) | 87.2 to 90 |
| O=Cc1cccc(N2CCOCC2)n1 | 93 to 95 |
| Nc1ccc(Cl)c(C(F)(F)F)c1 | 37 |
| CCOC(=O)C1=C(C)NC(=O)NC1c1ccccc1[N+](=O)[O-] (configuration not stated) | 220 |
| O=[N+]([O-])c1ccc(NN=C(c2ccccc2)c2ccccc2)cc1 | 156 |
| CCOC(=O)c1c(C)oc(NC(=O)Nc2ccc(Cl)cc2)c1C(=O)OCC | 169 to 170 |
| OC(c1ccc(-c2ccc(C(O)(C(F)(F)F)C(F)(F)F)cc2)cc1)(C(F)(F)F)C(F)(F)F | 125 to 126 |
| CC(=O)CC(=O)c1c(C)c(C)c(C)c(C)c1C | 73.8 to 75.1 |
| CS(=O)(=O)CCO | 31 to 33 |
| Nc1ccc(C/C(=N/O)c2ccc(N)cc2)cc1 | 146 to 147 |
| Cc1onc(-c2ccc(F)cc2)c1C(=O)Cl | 51 to 55 |
| Cc1ccncc1C=NO | 180 |
| Cn1c(=O)c(C2=NNC(=O)C2=NNc2cc(Cl)ccc2Cl)c(O)c2ccccc21 | 284 |
| Cc1ccccc1NCCNc1ccccc1C | 72 |
| O=c1[nH]c2ccccc2nc(C(F)(F)F)c1=NNc1cc(-c2ccccc2)n[nH]1 | 159 |
| CC(=O)OCC(=O)C12OC(C)(C)OC1CC1C3CC(F)C4=CC(=O)C=CC4(C)C3(F)C(O)CC12C (configuration not stated) | 309 |
| Cc1ccc(C(=O)C=Cc2cccc([N+](=O)[O-])c2)cc1 | 134 to 137 |
| CN1CCCC1C(O)(c1ccccc1)c1ccccc1 (configuration not stated) | 66 to 69 |
| Cc1ccccc1[N+](=O)[O-] | -4 |
| C[C@]12CCC(O)CC1=CC[C@@H]1[C@@H]2CC[C@]2(C)C(O)CC[C@@]12C (some centres not stated) | 182 to 184 |
| Cc1nc(C(F)(F)F)c(C(=O)O)cc1-c1nc(-c2ccccc2)cs1 | 188 to 190 |
| c1ccc2sncc2c1 | 38 |
| O=S(c1ccc(Cl)cc1)c1ccc(Cl)cc1 | 140 to 145 |
| CN(C)c1ccc(C=O)c(Cl)c1 | 83 to 84 |
| O=C(CCl)N1CCc2c([nH]c3ccccc23)C1C(F)(F)F (configuration not stated) | 232 to 235 |
| Ic1ccc(OCc2ccccc2)cc1 | 62 |

| SMILES | melting point [°C] |
| --- | --- |
| CCCCCCCCBr | -55 |
| Cc1ccnc(O)c1[N+](=O)[O-] | 228 to 232 |
| CCCc1c(C(=O)O)cnn1-c1cc(Cl)cc(Cl)c1 | 169 to 171 |
| CCCCCCCCCCCC(=O)OCC | -2 |
| COc1ccc(C2Nn3c(nnc3-c3ccccc3OC)S2)cc1 (configuration not stated) | 203 to 204 |
| O=C(O)[C@H]1COCN1C(=O)OCc1ccccc1 | 70 to 74 |
| CC(C)CN1C(=O)N2CCc3ccccc3C2(c2ccc(Cl)cc2)C1=O (configuration not stated) | 120 to 121 |
| Cn1c(/C(C#N)=C/c2cccc(O)c2)nc2ccccc21 | 240 |
| CC(Cl)(Cl)C(=O)O | -5 |
| COc1cc(OC)n2nc(S(=O)(=O)Nc3c(Cl)ccc(C)c3Cl)nc2n1 | 211 |
| Cc1nn(-c2ccccc2)c(Cl)c1C=O | 144 to 148 |
| CCC1(C2=CCCCCC2)C(=O)NC(=O)NC1=O | 174 |
| O=[N+]([O-])c1cc(C=NNc2ccccc2)ccc1C=NNc1ccccc1 | 185 |
| CCOC(=O)C(C#N)=CNc1ccccc1Cl | 165 to 167 |
| CCCCCCCCCCCCCCCC#N | 31 |
| CCO[Si](Cl)(Cl)OCC | -130 |
| CCOC(=O)c1c(NC(=O)CN2CCN(C(=O)OCC)CC2)sc2c1CCCC2 | 122 to 123 |
| CC(C)C(C(=O)O)c1ccccc1 (configuration not stated) | 60 |
| CC1=NNC(=O)C1=NNc1ccccc1C(=O)O | 239 |
| CCOC(=O)c1sc(-c2ccc(C(F)(F)F)cc2)nc1C | 87 to 89 |
| C=C(C)C=C(C)C | -114 |
| CCCCCCCC(=O)Oc1c(I)cc(C#N)cc1I | 59.5 |
| CON=C(C(=O)OC)c1ccccc1COc1ccccc1C | 102 |
| Clc1cccc2cc3ccccc3cc12 | 83.5 |
| ClCc1cc(Cl)cc(Cl)c1 | 36 |
| CC(C)C(O)C1(C)CCC(C(=O)O)C(C)(C)O1 (configuration not stated) | 115 |

| SMILES | melting point [°C] |
| --- | --- |
| NC(=O)Cc1cccc2ccccc12 | 184 |
| CCOC(=O)C1=C(C)NC(=O)NC1c1ccc(O)c(OC)c1 (configuration not stated) | 190 |
| CC(=O)N(CC(C)C(=O)O)c1c(I)cc(I)c(N)c1I (configuration not stated) | 224 |
| NC(=O)c1cnccc1/C=C/c1ccccc1 | 200 |
| CCCCCCCCCN | -1 |
| Cc1ccc(C(=O)O)c([N+](=O)[O-])c1O | 186 |
| O=C(O)CCc1ccc2c(c1)NC(=O)CC2 | 240 |
| CC(C)c1cc(C(C)C)c(S(=O)(=O)N=[N+]=[N-])c(C(C)C)c1 | 42 |
| Nc1ccc(S(=O)(=O)NC(=O)c2ccccc2)cc1 | 182 |
| O=[N+]([O-])c1cc(C(F)(F)F)c(Cl)c([N+](=O)[O-])c1Nc1ncc(C(F)(F)F)cc1Cl | 117 |
| NC(=O)C1(C(=O)O)CC1 | 184 to 189 |
| Cc1cc(C)c(OC(=O)C(F)(F)F)cc1OC(=O)C(F)(F)F | 121 |
| N#CCc1cccc(C(F)(F)F)c1Cl | 57.5 |
| O=C(O)c1cccc(C(=O)O)n1 | 248 to 250 |
| CC(=CC=C(C)C(=O)O)C(=O)O | 221 |
| O=C(c1ccc2ccccc2c1)c1noc(-c2ccc(Br)cc2)c1S(=O)(=O)c1ccccc1 | 173 |
| Nc1nc(N)c2nc(-c3ccccc3)c(N)nc2n1 | 316 |
| CSc1ccc(C(=O)O)s1 | 103 to 105 |
| Cc1c(N/N=C(/C(=O)c2ccc([N+](=O)[O-])cc2)S(=O)(=O)c2ccccc2)c(=O)n(-c2ccccc2)n1C | 135 |
| CC(=O)OC1CCC2(C)C(=CC(=O)C3C2CCC2(C)C(OCc4ccccc4)CCC32)C1 (configuration not stated) | 203 |
| CC(C)CCC[C@@H](C)[C@H]1CC[C@H]2[C@@H]3CC[C@H]4C[C@H](O)CC[C@]4(C)[C@H]3CC[C@]12C | 186 |
| CCC(CO)NCCNC(CC)CO (configuration not stated) | 89 |
| CC1(C)CC(=O)c2cc(-c3ccccc3)n(-c3cccc(C(F)(F)F)c3)c2C1 | 145 to 147 |
| Brc1cccc(-n2cccc2)c1 | 63 to 64 |
| O=C(Cl)C(Cl)(c1ccccc1)c1ccccc1 | 47 to 52 |
| O=[N+]([O-])C1CCCCC1 | -34 |

| SMILES | melting point [°C] |
| --- | --- |
| CC1=CP(=O)(c2ccccc2)CC1 (configuration not stated) | 58 to 62 |
| CN(C)C(=O)Cl | -33 |
| Oc1cc(C(F)(F)F)nc2cc(Cl)ccc12 | 280 |
| COC(=O)c1cc(O)c(O)c(O)c1 | 262 |
| CN1C(=O)c2ccccc2C1OC(=O)c1ccccc1 (configuration not stated) | 93 |
| CC(C)CCCC(C)C1CCC2C3CC(Cl)C4(O)CC(=O)CCC4(C)C3CCC12C (configuration not stated) | 214 |
| NCC(=O)NO | 156 |
| CC1OC1P(=O)(O)O (configuration not stated) | 94 |
| O=C(O)c1cnon1 | 102 to 104 |
| CC1(C)CC(=O)OC(=O)C1 | 122 to 126 |
| Nc1c(Cl)cncc1Cl | 161 |
| C=CCCC(=C)C | -129 |
| N#Cc1cc(C#N)c(C#N)cc1C#N | 267 to 270 |
| Cc1cc(Cl)cc(C)c1N | 48 |
| CCCCCCCCCCCCS(=O)(=O)Cl | 40.5 |
| CCOC(=O)C=Cc1ccc([N+](=O)[O-])cc1 | 139 |
| CCCCCCCCCCCCCCCCCC(=O)OCCCCC | 30 |
| Clc1c2ccccc2cc2ccccc12 | 104 |
| Cn1nnc2cc(CO)ccc21 | 94 to 96 |
| COc1ccc(C2CC(=O)c3c(O)cc(OC4OC(COC5OC(C)C(O)C(O)C5O)C(O)C(O)C4O)cc3O2)cc1O (configuration not stated) | 262 |
| Cc1cc(N)cc(C)n1 | 192 |
| O=c1[nH]nc(S)n1C1CCCCC1 | 190 to 194 |
| CCC1(OC(C)=O)CCC2(C)C(CCC3C4CCC(=O)C4(C)CCC32)C1 (configuration not stated) | 150 to 152 |
| CC(=O)OC(/C=C/c1ccccc1)=NNC(N)=O | 174 |
| COC(=O)c1ccc2c(C=O)cn(C(=O)OC(C)(C)C)c2c1 | 214 to 215 |
| Nc1nc(CC(=O)O)cs1 | 118 |

| SMILES | melting point [°C] |
| --- | --- |
| Nc1cc(S(=O)(=O)F)ccc1Cl | 64 to 68 |
| CC(C)c1ccccc1 | -96 |
| C=Cc1ccccc1CC | -75.5 |
| CSc1nc2cc(N=Cc3ccc([N+](=O)[O-])cc3)ccc2[nH]1 | 259 to 260 |
| CC(=O)c1cc(Cl)c(N)c(Cl)c1 | 161 to 165 |
| CC(C)[C@H](NC(=O)CN)C(=O)O (H-Gly-Val-OH) | 248 |
| COc1cc(N=C=S)c(OC)cc1Cl | 84 to 86 |
| COc1ccccc1OP(=O)(Oc1ccccc1OC)Oc1ccccc1OC | 91 |
| NS(=O)(=O)c1cc(Cl)cc(Cl)c1 | 170 to 172 |
| CCCCCCCCc1ccc(NC(=O)c2ccc(C)cc2)cc1 | 113 |
| CC12CCC(/C(=C/N(Cl)c3ccccc3)C1=O)C2(C)C (configuration not stated) | 102 to 103 |
| CCOC(N)=S | 41 |
| C=Cc1ccc(C)cc1C | -64 |
| COC(=O)[C@H]1C[C@H](NC(=O)OC(C)(C)C)[C@@H](O)C1 | 71.2 |
| CC(C)(C)c1nc2ccccc2[nH]1 | 320 |
| Nc1ccc([N+](=O)[O-])c(F)c1 | 160 |
| O=C(O)C1(c2c(F)cccc2Cl)CCCCC1 | 128 to 134 |
| O=C1OC(=O)C2C3C=CC(C12)C1C(=O)OC(=O)C31 (configuration not stated) | 360 |
| CC(C(=O)Nc1ccc(F)c(F)c1F)(C(F)(F)F)C(F)(F)F | 44 |
| O=C(O)CCCCc1ccc(O)cc1 | 118 |
| Cc1ccc(S(=O)(=O)OC2CCC3C4CCC5CC(=O)CCC5(C)C4CCC23C)cc1 (configuration not stated) | 179 to 180 |
| FC(F)(Cl)CBr | -76 |
| COc1cc(F)ccc1C(C)=O | 52 |
